Results taken from US10450288B2, “Hydroxy formamide derivatives and their use” (GLAXOSMITHKLINE INTELLECTUAL PROPERTY (NO.2) LIMITED, priority 2014, dated 2019).
Structures can show the parent of a compound that is named as a salt.

System: human cardiac fibroblasts
Experiment: Cell-based inhibition assay of generation of procollagen I C-terminal propeptide (PICP), PICP ELISA
Settings: Cardiac fibroblast; human cardiac fibroblasts, crowding media, 24 to 48 hr, PICP ELISA of media; read-out: pIC50, PICP cellular inhibition assay (converted)
Procedure: Cell-Based Inhibition Assay of Generation of Procollagen I C-Terminal Propeptide (PICP) and Mature Collagen:
An adaptation of the collagen deposition assay described by Chen, C. Z. C., et al., British Journal of Pharmacology, 2009, 158, 1196-1209 was used to examine effect of compounds on procollagen I processing and collagen deposition. In the adapted assay, human cardiac fibroblasts were utilized. Processing of procollagen I was determined by a PICP ELISA assay and deposition of mature collagen was determined by immunostaining.
Human cardiac fibroblasts were cultured and maintained until passage 6 in FGM-3 media (Lonza, #CC-3132) in a 37° C. humidified incubator with 5% CO2. They were then seeded in 96-well black wall, clear bottom plates at 10,000 to 15,000 cells per well in eagle's minimum essential media (EMEM, ATCC #30-2003) containing 10% fetal bovine serum (FBS, Life Technologies #10082147), 1% Glutamax (Life Technologies #35050061) and 1% Penicillin and Streptomycin (Life Technologies #15070063). These cultures were placed in 37° C. incubator. The next day, media were removed by aspiration and cells were rinsed with phosphate buffered saline. Crowding media (also called ficoll media) was prepared by adding 112.5 mg/ml of ficoll70 and 75 mg/ml ficoll400 (GE healthcare #17-0310-10 and 17-0300-10, respectively), 100 μM ascorbic acid, 1% Glutamax and 1% Penicillin and Streptomycin to EMEM media. Test compounds (dissolved in DMSO) were diluted into crowding media and then added to the cells. Final concentration of DMSO in crowding media was less than 0.3%. Cells were treated for 24 to 48 hr in a 37° C. incubator. At the end of the treatment period, cell media were collected. The level of PICP in the media were determined by a PICP ELISA assay (Quidel #8003) following the manufacturer's protocol. Potencies of test compounds were calculated by fitting PICP levels, relative to untreated controls, to log (inhibitor) vs. response equation using Graphpad Prism software 5.0 and expressed as pIC50.

Row | SMILES | IC50 [µM]
1 | CCCCC[C@@H](C(=O)NCNC(=O)c1ccc(-c2cc(OCC)cc(C(=O)NCP(=O)(O)O)c2)o1)[C@@H](CC)N(O)C=O [Example 100, ((3-ethoxy-5-(5-((((R)-2-((R)-1-(N-hydroxy-formamido)propyl)heptanamido)methyl)carbamoyl)furan-2-yl)benzamido)methyl) phosphonic acid] | < 3.98
2 | CCCCC[C@H](CN(O)C=O)C(=O)NCNC(=O)c1ccc(-c2cccc(OCC(F)F)c2)o1 [Example 102, (R)-5-(3-(2,2-difluoroethoxy)phenyl)-N-((2-((N-hydroxyformamido)methyl)heptanamido)methyl)furan-2-carboxamide] | < 3.98
3 | CCCCC[C@H](CN(O)C=O)C(=O)NCNC(=O)c1ccc(-c2cccc(SCC)c2)o1 [Example 103, (R)-5-(3-(ethylthio)phenyl)-N-((2-((N-hydroxyformamido)methyl)heptanamido)methyl)furan-2-carboxamide] | < 3.98
4 | CCCCC[C@H](CN(O)C=O)C(=O)NCNC(=O)c1ccc(-c2cccc(SC)c2)o1 [Example 104, (R)-N-((2-((N-hydroxyformamido)methyl)heptanamido)methyl)-5-(3-(methylthio)phenyl)furan-2-carboxamide] | < 3.98
5 | CCCCC[C@H](CN(O)C=O)C(=O)NCNC(=O)c1ccc(-c2cccc([N+](=O)[O-])c2)o1 [Example 105, (R)—N-((2-((N-hydroxyformamido)methyl)heptanamido)methyl)-5-(3-nitrophenyl)furan-2-carboxamide] | < 3.98
6 | CCCCC[C@H](CN(O)C=O)C(=O)NCNC(=O)c1ccc(-c2ccc3cnn(C)c3c2)o1 [Example 106, (R)—N-((2-((N-hydroxyformamido)methyl)heptanamido)methyl)-5-(1-methyl-1H-indazol-6-yl)furan-2-carboxamide] | < 3.98
7 | CCCCC[C@H](CN(O)C=O)C(=O)NCNC(=O)c1ccc(-c2cccc(P(=O)(O)O)c2)o1 [Example 108, (R)-(3-(5-(((2-((N-hydroxyformamido)methyl)heptanamido)methyl)carbamoyl)furan-2-yl)phenyl)phosphonic acid] | < 3.98
8 | CCCCC[C@@H](C(=O)NCNC(=O)c1ccc(-c2ccc(C(=O)O)c(CC(=O)O)c2)o1)[C@@H](CC)N(O)C=O [Example 114] | < 3.98
9 | CCOc1cc(C(=O)O)c(O)c(-c2ccc(C(=O)NCNC(=O)[C@H](CCc3ccccc3)[C@@H](CC)N(O)C=O)o2)c1 [Example 115, 5-ethoxy-2-hydroxy-3-(5-((((2R,3R)-3-(N-hydroxyformamido)-2-phenethylpentanamido)methyl)carbamoyl)furan-2-yl)benzoic acid] | < 3.98
10 | CCOc1cc(-c2ccc(C(=O)NCNC(=O)[C@H](CCc3ccc4ccccc4c3)[C@@H](CC)N(O)C=O)o2)ccc1C(=O)N[C@@H](CC(=O)O)C(=O)O [Example 117, (S)-2-(2-ethoxy-4-(5-((((2R,3R)-3-(N-hydroxyformamido)-2-(2-(naphthalen-2-yl)ethyl)pentana-mido)methyl)carbamoyl)furan-2-yl)benzamido) succinic acid] | < 3.98
11 | CC[C@H]([C@@H](CCc1ccc(F)cc1F)C(=O)NCNC(=O)c1ccc(-c2cc(OCC(=O)O)cc(C(=O)O)c2O)o1)N(O)C=O [Example 118, 5-(carboxymethoxy)-3-(5-((((2R,3R)-2-(2,4-difluorophenethyl)-3-(N-hydroxyformamido)pentanamido)methyl)carbamoyl)furan-2-yl)-2-hydroxybenzoic acid] | < 3.98
12 | CCCCC[C@@H](C(=O)NCNC(=O)c1ccc(-c2ccc(C(=O)N[C@@H](CC(=O)O)C(=O)O)cc2)o1)[C@@H](CC)N(O)C=O [Example 119, (S)-2-(4-(5-((((R)-2-((R)-1-(N-hydroxyformamido)propyl)heptanamido)methyl)carbamoyl)furan-2-yl)benzamido) succinic acid] | < 3.98
13 | CCCCC[C@@H](C(=O)NCNC(=O)c1ccc(-c2ccc(C(=O)N[C@@H](CC(=O)O)C(=O)O)c(C)c2)o1)[C@@H](CC)N(O)C=O [Example 120, (S)-2-(4-(5-((((R)-2-((R)-1-(N-hydroxyformamido)propyl)heptanamido)methyl)carbamoyl)furan-2-yl)-2-methylbenzamido) succinic acid] | < 3.98
14 | CCCCC[C@@H](C(=O)NCNC(=O)c1ccc(-c2cc(OCC(=O)O)cc(C(=O)N[C@@H](CC(=O)O)C(=O)O)c2)o1)[C@@H](CC)N(O)C=O [Example 125, (S)-2-(3-(carboxymethoxy)-5-(5-((((R)-2-((R)-1-(N-hydroxyformamido)propyl)heptanamido)methyl)carbamoyl)furan-2-yl)benzamido) succinic acid] | < 3.98
15 | CCCCC[C@@H](C(=O)NCNC(=O)c1ccc(-c2ccc(C(=O)O)c(C(=O)O)c2)o1)[C@@H](CC)N(O)C=O [Example 129, 4-(5-((((R)-2-((R)-1-(N-hydroxyformamido)propyl)heptanamido)methyl)carbamoyl)furan-2-yl)phthalic acid] | < 3.98
16 | CCCCC[C@@H](C(=O)NCNC(=O)c1ccc(-c2cc(CN(C)CC(=O)O)cc(OCC)c2)o1)[C@@H](CC)N(O)C=O [Example 130, 2-((3-ethoxy-5-(5-((((R)-2-((R)-1-(N-hydroxyformamido)propyl)heptanamido)methyl)carbamoyl)furan-2-yl)benzyl)(methyl)amino)acetic acid] | < 3.98
17 | CCCCC[C@@H](C(=O)NCNC(=O)c1ccc(-c2cc(OCC(N)=O)cc(C(=O)O)c2)o1)[C@@H](CC)N(O)C=O [Example 131, 3-(2-amino-2-oxoethoxy)-5-(5-((((R)-2-((R)-1-(N-hydroxyformamido)propyl)heptanamido)methyl)carbamoyl)furan-2-yl)benzoic acid] | < 3.98
18 | CCCCC[C@@H](C(=O)NCNC(=O)c1ccc(-c2ccc(C(=O)N[C@H](CC(=O)O)C(=O)O)cc2)o1)[C@@H](CC)N(O)C=O [Example 133] | < 3.98
19 | CCCCC[C@@H](C(=O)NCNC(=O)c1ccc(-c2ccc(C(=O)N[C@@H](CCC(=O)O)C(=O)O)cc2)o1)[C@@H](CC)N(O)C=O [Example 134, (S)-2-(4-(5-((((R)-2-((R)-1-(N-hydroxyformamido)propyl)heptanamido)methyl)carbamoyl)furan-2-yl)benzamido) pentanedioic acid] | < 3.98
20 | CCCCC[C@@H](C(=O)NCNC(=O)c1ccc(-c2ccc(C(=O)N[C@@H](CCC(=O)O)C(=O)O)c(OCC)c2)o1)[C@@H](CC)N(O)C=O [Example 135, (S)-2-(2-ethoxy-4-(5-((((R)-2-((R)-1-(N-hydroxyformamido)propyl)heptanamido)methyl)carbamoyl)furan-2-yl)benzamido) pentanedioic acid] | < 3.98
21 | CCCCC[C@@H](C(=O)NCNC(=O)c1ccc(-c2ccc(C(=O)N(CC(=O)O)CC(=O)O)cc2)o1)[C@@H](CC)N(O)C=O [Example 136, 2,2′-((4-(5-((((R)-2-((R)-1-(N-hydroxyformamido)propyl)heptanamido)methyl)carbamoyl)furan-2-yl)benzoyl)azanediyl)diacetic acid] | < 3.98
22 | CCCCC[C@@H](C(=O)NCNC(=O)c1ccc(-c2cc(CNCP(=O)(O)O)cc(OCC)c2)o1)[C@@H](CC)N(O)C=O [Example 137, (((3-ethoxy-5-(5-((((R)-2-((R)-1-(N-hydroxyformamido)propyl)heptanamido)methyl)carbamoyl)furan-2-yl)benzyl)amino)methyl)phosphonic acid, trifluoroacetic acid salt] | < 3.98
23 | CCCCC[C@@H](C(=O)NCNC(=O)c1ccc(-c2cc(O)cc(P(=O)(O)O)c2)o1)[C@@H](CC)N(O)C=O [Example 138, (3-hydroxy-5-(5-((((R)-2-((R)-1-(N-hydroxyformamido)propyl)heptanamido)methyl)carbamoyl)furan-2-yl)phenyl) phosphonic acid] | < 3.98
24 | CCOc1cc(-c2ccc(C(=O)NCNC(=O)[C@H](CCc3ccccc3)[C@@H](CC)N(O)C=O)o2)cc(P(=O)(O)O)c1 [Example 140] | < 3.98
25 | CCOc1cc(-c2ccc(C(=O)NCNC(=O)[C@H](CCc3ccc4ccccc4c3)[C@@H](CC)N(O)C=O)o2)cc(P(=O)(O)O)c1 [Example 141] | < 3.98

Same assay, conditions: Homo sapiens, Cardiac fibroblast, read-out: pIC50, PICP cellular inhibition assay (converted)

Row | SMILES | IC50 [µM]
26 | CCCCC[C@@H](C(=O)NCNC(=O)c1ccc(-c2cc(OCC)cc(P(=O)(O)OC)c2)o1)[C@@H](CC)N(O)C=O [Example 101, methyl hydrogen (3-ethoxy-5-(5-((((R)-2-((R)-1-(N-hydroxyformamido)propyl)heptanamido)methyl)carbamoyl)furan-2-yl)phenyl)phosphonate] | < 3.98
